Values joined by “and” are separate entries in the source; they are usually repeats but may differ in a detail not shown here. Identical values can stand only once.
assay: Acceptable intake / acceptable level of nitrosamine impurities (Health Canada); conditions: based on a maximum daily dose of 2 mg for varenicline
Text: International regulators such as United States Food and Drug Administration (USFDA), European Medicine Agency (EMA), and Health Canada have published recommendations with respect to ‘acceptable intake’ of nitrosamine impurities. ‘Acceptable intake’ (per day) of nitrosamine impurities varies with the impurity structure, molecular weight, and its toxicity potential. Table 1 illustrates the per day ‘acceptable intake’ of some nitrosamine impurities, as published by Health Canada.
‘Acceptable intake’ of a nitrosamine impurity, when applied to the maximum daily dose of a drug, provides ‘acceptable levels’ of the said nitrosamine impurity in pharmaceutical compositions containing the said drug. ‘Acceptable levels’ of a nitrosamine impurity are expressed in parts per million (ppm) or parts per billion (ppb), of the drug (by weight). For example, for varenicline (which contains amine), the ‘acceptable intake’ of the N-nitroso-varenicline (NNV) (nitrosamine impurity of the NDSRI type) is 37 ng/day, and the ‘acceptable level’ of NNV is 18.5 ppm based on a maximum daily dose of 2 mg for varenicline.

Row | SMILES | acceptable level of NNV [ppm]
1 | O=NN1CC2CC(C1)c1cc3nccnc3cc12 [N-nitroso-varenicline (NNV), N-nitroso-varenicline] | 18.5

assay: not given; conditions: per day, as published by Health Canada; cited from earlier work

Row | SMILES | Acceptable Intake (AI) Levels
2 | CCN(N=O)C(C)C [N-nitroso-ethylisopropylamine (NEIPA), N-nitroso-ethylisopropylamine] | 26.5 ng/day
3 | CN(CC[C@H](Oc1cccc2ccccc12)c1cccs1)N=O [N-nitroso-duloxetine (NDLX), N-nitroso-duloxetine] | 100.0 ng/day
4 | CCCCN(CCCC)N=O [N-nitroso-dibutylamine (NDBA), N-nitroso-dibutylamine] | 26.5 ng/day
5 | O=NN1CC=CCC1 [N-nitroso-1,2,3,6-tetrahydropyridine] | 37.0 ng/day
6 | O=NN1CCn2c(nnc2C(F)(F)F)C1 [7-Nitroso-3-(trifluoromethyl)-5,6,7,8-tetrahydro[1,2,4]triazolo-[4,3-a]pyrazine] | 37.0 ng/day
7 | O=NN1CCCCC1 [N-nitroso-piperidine] | 1300.0 ng/day
8 | CN(C)N=O [N-nitroso-dimethylamine (NDMA), N-nitroso-dimethylamine] | 96.0 ng/day
9 | CN(CCC=C1c2ccccc2CCc2ccccc21)N=O [N-nitroso-nortriptyline (NNORT), N-nitroso-nortriptyline] | 8.0 ng/day
10 | CN(CCc1ccccc1)N=O [N-methyl-N-nitroso-phenethylamine] | 8.0 ng/day
11 | O=NN1CCOCC1 [N-nitrosomorpholine (NMOR), N-nitrosomorpholine] | 127.0 ng/day
12 | O=NN1CC2CC(C1)c1cc3nccnc3cc12 [N-nitroso-varenicline (NNV), N-nitroso-varenicline] | 37 ng/day and 37.0 ng/day
13 | CN1CCN(N=O)CC1 [1-methyl-4-nitrosopiperazine (MNP), 1-methyl-4-nitrosopiperazine] | 96.0 ng/day
14 | COC(=O)C(c1ccccc1)C1CCCCN1N=O (stereo not shown) [N-nitroso-methylphenidate] | 1300.0 ng/day
15 | C#CCN(N=O)[C@@H]1CCc2ccccc21 [N-nitroso-rasagiline] | 18.0 ng/day
16 | CN(CCCC(=O)O)N=O [N-nitroso-4-(methylamino)butyric acid] | 96.0 ng/day
17 | CCCN(CCC)N=O [N-nitroso-dipropylamine (NDPA), N-nitroso-dipropylamine] | 26.5 ng/day
18 | CC(C)N(N=O)C(C)C [N-nitroso-diisopropylamine (NDIPA), N-nitroso-diisopropylamine] | 26.5 ng/day
19 | CCN(CC)N=O [N-nitroso-diethylamine (NDEA), N-nitroso-diethylamine] | 26.5 ng/day

— patent US20260102499A1, “COMPOSITIONS WITH REDUCED N[…]” (INVENTIA HEALTHCARE LIMITED, priority 2022, published 2026)
